Reference: patent US20070010489A1 (priority 2002, published 2007)
Like-named read-outs stand apart in the source and are kept apart here.

Key:
[1] = tested on: wild-type HIV-1 strain IIIB; test: microbe, parasite or virus in culture; type: cell-based
[2] = tested on: mutant HIV-1 with I84V/L90M mutations; test: microbe, parasite or virus in culture; type: cell-based
[3] = molecular target: T1, 84V90M (Human immunodeficiency virus type 1 group M subtype B, UniProt P04585, I572V/L578M); type: biochemical, HIV; settings: Enzymatic assay
[4] = molecular target: T2, recombinant HIV-1 protease (Human immunodeficiency virus type 1 group M subtype B, UniProt P04585); test: biochemical; settings: for IC50: read-out: WT IC50
T2 construct: Enzyme: recombinant HIV-1 protease expressed in E. Coli; purchased Bachem California, Inc. H-9040; host or cells: E. coli

[5] = molecular target: T1, 84V90M; test: cell-based; set-up: species or system HIV; settings: Cell-based assay (MT-4)
[6] = Human immunodeficiency virus 1, IIIB
[7] = fold difference in EC50 mutant vs wild type, class symbols
[8] = Human immunodeficiency virus 1, IIIB, class symbols

Compound: Cc1cccc(C)c1OCC(=O)NC(Cc1ccc(OCP(=O)(OCc2ccccc2)OCc2ccccc2)cc1)C(O)CN(CC(C)C)S(=O)(=O)c1ccc(N)cc1 (centres unmarked)
- EC50 [1, 6]: 50 to 500 nM
- I84V/L90M fold change ([2]; fold change): − (≦3)

Compound: Nc1n[nH]c2ccc(CN3C(=O)N(Cc4ccc(OCP(=O)(OCc5ccccc5)OCc5ccccc5)cc4)C(Cc4ccccc4)C(O)C(O)C3Cc3ccccc3)cc12 (centres unmarked)
- IC50 [3]: 2040 nM
- Ki ([4]; read-out: Ki): > 5000 pM
- IC50 [4]: 276 nM
- EC50 [5]: 4960 nM

Compound: CCOP(=O)(COc1cccc(CN2C(=O)N(Cc3ccc4[nH]nc(N)c4c3)C(Cc3ccccc3)C(O)C(O)C2Cc2ccccc2)c1)OCC (centres unmarked)
- IC50 [3]: 169 nM
- Ki ([4]; read-out: Ki): 1930 pM
- IC50 [4]: 70 nM
- EC50 [5]: 3000 nM

Compound: CCCCOC(=O)C(C)NP(=O)(COc1cccc(CN2C(=O)N(Cc3ccc4[nH]nc(N)c4c3)C(Cc3ccccc3)C(O)C(O)C2Cc2ccccc2)c1)NC(C)C(=O)OCCCC (centres unmarked) [m-bis-Ala-Bu]
- EC50 [5]: > 6000 nM

Compound: COc1ccc(S(=O)(=O)N(CC(C)C)C[C@@H](O)[C@H](Cc2ccc(OCP(=O)(O)O)cc2)NC(=O)OC2CCOC2)cc1 (some centres unmarked) [OMe, OH]
- I84V/L90M fold change ([2]; fold change): +++ (>30)

Compound: CCOP(=O)(COc1cccc(S(=O)(=O)N(CC(C)C)CC(O)C(Cc2ccccc2)NC(=O)OC2COC3OCCC23)c1)OCC (centres unmarked)
- EC50 [1, 6]: < 50 nM
- I84V/L90M fold change ([2]; fold change): ++ (>10 to ≦30)

Compound: CCOC(=O)C(CC)NP(=O)(COc1ccc(CC(NC(=O)OC2COC3OCCC23)C(O)CN(CC(C)C)S(=O)(=O)c2ccc(OC)cc2)cc1)NC(CC)C(=O)OCC (centres unmarked) [Example 16e]
- Ki ([4]; read-out: HIV-1 protease inhibition Ki): 8.8 ± 1.7 pM
- EC50 ([1]; read-out: Anti-HIV-1 Cell Culture Activity EC50): 12.5 ± 3.5 nM

Compound: COc1ccc(S(=O)(=O)N(CC(C)C)CC(O)C(Cc2ccc(OCP(=O)(NC(C)C(=O)OC(C)C)Oc3ccccc3)cc2)NC(=O)OC2COC3OCCC23)cc1 (centres unmarked) [drawing 1774 R1=OPh R2=Ala-iPr]
- I84V/L90M fold change [2, 7]: − (≦3)

Compound: CC(C)CN(CC(O)C(Cc1ccc(OCP(=O)(NC(C)C(=O)OC(C)C)Oc2ccccc2)cc1)NC(=O)OC1CCOC1)S(=O)(=O)c1ccc(N)cc1 (centres unmarked) [drawing 1864 R1=OPh R2=Ala-iPr]
- Ki ([4]; Ki (pM), class symbols): 10 to 100 pM
- EC50 [1, 8]: 50 to 500 nM

Compound: COc1ccc(S(=O)(=O)N(CC(C)C)CC(O)C(Cc2ccccc2)NC(=O)OC2COC3OCCC23)cc1OCP(=O)(OCc1ccccc1)OCc1ccccc1 (centres unmarked)
- I84V/L90M fold change ([2]; fold change): ++ (>10 to ≦30)

Compound: CCOP(=O)(OCC)c1ccc(CC(NC(=O)OC2COC3OCCC23)C(O)CN(CC(C)C)S(=O)(=O)c2ccc(OC)cc2)cc1 (centres unmarked) [drawing 1770 R1=OEt R2=OEt]
- EC50 [1, 6]: < 50 nM
- I84V/L90M fold change [2, 7]: − (≦3)

Compound: COc1ccc(S(=O)(=O)N(CC(C)C)C[C@@H](O)[C@H](Cc2ccc(OCP(=O)(OCc3ccccc3)OCc3ccccc3)cc2)NC(=O)OC2CCOC2)cc1 (some centres unmarked) [OMe, OBn]
- EC50 ([1]; read-out: EC50): < 50 nM
- I84V/L90M fold change ([2]; fold change): ++ (>10 to ≦30)

Compound: CCOC(=O)C(CC)OP(=O)(COc1ccc(CC(NC(=O)OC2COC3OCCC23)C(O)CN(CC(C)C)S(=O)(=O)c2ccc(OC)cc2)cc1)Oc1ccccc1 (centres unmarked) [Compound 5b]
- Ki ([4]; Ki (pM), class symbols): 100 to 1000 pM

Compound: CCOP(=O)(OCC)c1ccc(CN(C)CC(NC(=O)OC2COC3OCCC23)C(O)CN(CC(C)C)S(=O)(=O)c2ccc(OC)cc2)cc1 (centres unmarked)
- EC50 [1, 6]: < 50 nM
- I84V/L90M fold change [2, 7]: − (≦3)

Compound: CCOP(=O)(COc1ccc(CN2C(=O)N(Cc3ccc4[nH]nc(N)c4c3)C(Cc3ccccc3)C(O)C(O)C2Cc2ccccc2)cc1)OCC (centres unmarked)
- IC50 [3]: 1470 nM
- Ki ([4]; read-out: Ki): > 5000 pM
- IC50 [4]: 627 nM
- EC50 [5]: > 6000 nM

Compound: CCOC(=O)C(CC)OP(=O)(COc1ccc(CC(NC(=O)OC2COC3OCCC23)C(O)CN(CC(C)C)S(=O)(=O)c2ccc(OC)cc2)cc1)Oc1ccccc1 (centres unmarked) [Compound 5a]
- Ki ([4]; Ki (pM), class symbols): 10 to 100 pM
- EC50 [1, 8]: < 50 nM
- I84V/L90M fold change [2, 7]: − (≦3)

Compound: CCOP(=O)(OCC)c1ccc(CNCC(NC(=O)OC2COC3OCCC23)C(O)CN(CC(C)C)S(=O)(=O)c2ccc(OC)cc2)cc1 (centres unmarked)
- EC50 [1, 6]: < 50 nM
- I84V/L90M fold change [2, 7]: ++ (>10 to ≦30)

Compound: CCOP(=O)(COc1ccc(S(=O)(=O)N(CC(C)C)CC(O)C(Cc2ccccc2)NC(=O)OC2COC3OCCC23)cc1)OCC (centres unmarked)
- EC50 [1, 6]: < 50 nM
- I84V/L90M fold change ([2]; fold change): ++ (>10 to ≦30)

Compound: CCOP(=O)(COCCCN1C(=O)N(Cc2ccc3[nH]nc(N)c3c2)C(Cc2ccccc2)C(O)C(O)C1Cc1ccccc1)OCC (centres unmarked) [OCH2PO3Et2]
- IC50 [3]: 157 nM
- EC50 [5]: > 6000 nM

Compound: CCOP(=O)(COc1ccc(CC2C(O)C(O)C(Cc3ccc(O)cc3)N(Cc3ccc(O)cc3)C(=O)N2Cc2ccc(O)cc2)cc1)OCC (centres unmarked) [OH, Ph-pOH, OCH2PO3Et2]
- IC50 [3]: 18 nM
- EC50 [5]: 1910 nM

Compound: CCOC(=O)C(C)NP(=O)(Cc1ccc(NCC(NC(=O)OC2COC3OCCC23)C(O)CN(CC(C)C)S(=O)(=O)c2ccc(OC)cc2)cc1)NC(C)C(=O)OCC (centres unmarked)
- EC50 [1, 6]: 50 to 500 nM
- I84V/L90M fold change [2, 7]: − (≦3)

Compound: CCOP(=O)(COc1ccc(CC2C(O)C(O)C(Cc3ccccc3)N(Cc3ccccc3)C(=O)N2Cc2ccccc2)cc1)OCC (centres unmarked)
- IC50 [3]: 48 nM
- EC50 [5]: 2460 nM

Compound: Cc1ccc(C(=O)NC(Cc2ccc(OCP(=O)(OCc3ccccc3)OCc3ccccc3)cc2)C(O)CN(CC(C)C)S(=O)(=O)c2ccc(N)cc2)cc1O (centres unmarked)
- EC50 [1, 6]: 50 to 500 nM
